Literature values, collected in patent US20230095832A1, “ADHESION BARRIER COMPOSITION, METHODS OF FABRICATION AND USE THEREOF” (SPOROGENICS PTE. LTD., priority 2020, published 2023).

Test system: intra-abdominal adhesions

In the case of O=C(O)c1cc(O)c(O)c(O)c1 [gallic acid], the “IL-6, TNF-α, TGF-b1 serum levels and NF-kB phosphorylation” value (further studies) is given as “significantly reduced” and the intra-abdominal adhesions (rats, compared to a control) is given as “decrease intra-abdominal adhesions”.
